Measurements: patent US20150374673A1, “Combination Therapy for the Treatment of Nosocomial Pneumonia” (priority 2013, published 2015)
Like-named read-outs stand apart in the source and are kept apart here.

Assays:
Assay in all cases: Initial MIC, microbroth dilution (CLSI), avibactam 4 mg/L
Format in all cases: cell-based
[1] = tested on: P. aeruginosa; settings: Pseudomonas aeruginosa
Procedure: (§1) All MIC determinations including those performed in the checkerboard assay were done in cation-adjusted Mueller-Hinton broth (purchased from Becton Dickinson, Oxford UK).
(§2) Initial MIC data were determined by microbroth dilution methods as recommended by CLSI (2012b). Checkerboards were made in accordance with the method given by Pillai et. al., ? Antimicrobial Combinations in Antibiotics, LABORATORY MEDICINE (Lorian Ed., 3rd Ed. (2003)) p. 365-440 as per standard microbroth dilution tests but with agents in combination. […] A final avibactam concentration of 4 mg/L was used throughout the study. Antibacterial agents were combined into microtitre plates using the Evolution III liquid handling system.

[2] = tested on: K. pneumoniae; settings: Klebsiella pneumoniae
Procedure: as §1, §2

[3] = tested on: E. coli; settings: Escherichia coli
Source text: (§3) All MIC determinations including those performed in the checkerboard assay were done in cation-adjusted Mueller-Hinton broth (purchased from Becton Dickinson, Oxford UK). […]

[4] = tested on: E. cloacae; settings: Enterobacter cloacae
Source text: as §3

[5] = tested on: S. aureus
Source text: as §3

[6] = tested on: E. faecalis
Source text: as §3

[7] = isolate 16 P. aeruginosa Basal MICs, read-out: MIC
[8] = isolate 19 P. aeruginosa PER, read-out: MIC
[9] = isolate 9 K. pneumoniae Basal MICs, read-out: MIC
[10] = isolate 1 E. cloacae Basal MICs, read-out: MIC
[11] = Staphylococcus aureus, isolate 22 S. aureus Basal MICs, read-out: MIC
[12] = Staphylococcus aureus, isolate 23 S. aureus Basal MICs, Penicillinase+, read-out: MIC
[13] = Staphylococcus aureus, isolate 24 S. aureus Basal MICs, Penicillinase+, read-out: MIC
[14] = Enterococcus faecalis, isolate 25 E. faecalis Basal MICs, read-out: MIC
[15] = Enterococcus faecalis, isolate 26 E. faecalis Basal MICs, read-out: MIC
[16] = Enterococcus faecalis, isolate 27 E. faecalis Basal MICs, read-out: MIC

C[C@H]1COc2c(N3CCN(C)CC3)c(F)cc3c(=O)c(C(=O)O)cn1c23 [Levofloxacin]
MIC [1, 7]: 1 µg/mL | MIC ([1]; isolate 17 P. aeruginosa Derepressed AmpC, read-out: MIC): 8 µg/mL | MIC ([1]; isolate 18 P. aeruginosa Derepressed AmpC, read-out: MIC): 0.12 µg/mL | MIC [1, 8]: 16 µg/mL | MIC ([1]; isolate 20 P. aeruginosa KPC-2, read-out: MIC): 16 µg/mL | MIC ([1]; isolate 21 P. aeruginosa KPC-2, read-out: MIC): 32 µg/mL | MIC [2, 9]: 0.03 µg/mL | MIC ([2]; isolate 10 K. pneumoniae TEM-4, read-out: MIC): 0.03 µg/mL | MIC ([2]; isolate 11 K. pneumoniae CTX-M-15, read-out: MIC): 16 µg/mL | MIC ([2]; isolate 12 K. pneumoniae SHV-12, read-out: MIC): 0.03 µg/mL | MIC ([2]; isolate 13 K. pneumoniae KPC-3, read-out: MIC): 0.06 µg/mL | MIC ([2]; isolate 14 K. pneumoniae KPC-3, read-out: MIC): 16 µg/mL | MIC ([2]; isolate 15 K. pneumoniae KPC-2, read-out: MIC): 0.06 µg/mL | MIC ([3]; isolate 5 E. coli CTX-M-15, read-out: MIC): 16 µg/mL | MIC ([3]; isolate 6 E. coli TEM-4, read-out: MIC): 0.015 µg/mL | MIC ([3]; isolate 7 E. coli SHV-12, read-out: MIC): 0.015 µg/mL | MIC ([3]; isolate 8 E. coli SHV-2, read-out: MIC): 16 µg/mL | MIC [4, 10]: 0.03 µg/mL | MIC ([4]; isolate 2 E. cloacae Derepressed AmpC, read-out: MIC): 0.5 µg/mL | MIC ([4]; isolate 3 E. cloacae Derepressed AmpC, read-out: MIC): 0.06 µg/mL | MIC [5, 11]: 0.25 µg/mL | MIC [5, 12]: 0.12 µg/mL | MIC [5, 13]: 0.12 µg/mL | MIC [6, 14]: 0.5 µg/mL | MIC [6, 15]: 1 µg/mL | MIC [6, 16]: 1 µg/mL

CC(=O)NC[C@H]1CN(c2ccc(N3CCOCC3)c(F)c2)C(=O)O1 [Linezolid]
MIC [5, 11]: 2 µg/mL | MIC [5, 12]: 2 µg/mL | MIC [5, 13]: 2 µg/mL | MIC [6, 14]: 1 µg/mL | MIC [6, 15]: 2 µg/mL | MIC [6, 16]: 2 µg/mL

CN(C)c1cc(NC(=O)CNC(C)(C)C)c(O)c2c1C[C@H]1C[C@H]3[C@H](N(C)C)C(O)=C(C(N)=O)C(=O)[C@@]3(O)C(O)=C1C2=O [Tigecycline]
MIC [1, 7]: 16 µg/mL | MIC ([1]; isolate 17 P. aeruginosa Derepressed AmpC): 32 µg/mL | MIC ([1]; isolate 18 P. aeruginosa Derepressed AmpC): 32 µg/mL | MIC [1, 8]: 32 µg/mL | MIC ([1]; isolate 20 P. aeruginosa KPC-2): 16 µg/mL | MIC ([1]; isolate 21 P. aeruginosa KPC-2): 2 µg/mL | MIC [2, 9]: 0.25 µg/mL | MIC ([2]; isolate 10 K. pneumoniae TEM-4): 0.25 µg/mL | MIC ([2]; isolate 11 K. pneumoniae CTX-M-15): 1 µg/mL | MIC ([2]; isolate 12 K. pneumoniae SHV-12): 0.5 µg/mL | MIC ([2]; isolate 13 K. pneumoniae KPC-3): 1 µg/mL | MIC ([2]; isolate 14 K. pneumoniae KPC-3): 0.25 µg/mL | MIC ([2]; isolate 15 K. pneumoniae KPC-2): 0.5 µg/mL | MIC ([3]; isolate 4 E. coli Basal MICs, read-out: MIC): 0.12 µg/mL | MIC ([3]; isolate 5 E. coli CTX-M-15): 0.25 µg/mL | MIC ([3]; isolate 6 E. coli TEM-4): 0.5 µg/mL | MIC ([3]; isolate 7 E. coli SHV-12): 0.5 µg/mL | MIC ([3]; isolate 8 E. coli SHV-2): 0.25 µg/mL | MIC [4, 10]: 0.5 µg/mL | MIC ([4]; isolate 2 E. cloacae Derepressed AmpC): 1 µg/mL | MIC ([4]; isolate 3 E. cloacae Derepressed AmpC): 0.5 µg/mL | MIC ([5]; Staphylococcus aureus): 0.12 µg/mL | MIC ([5]; isolate 23 S. aureus Basal MICs, Penicillinase+): 0.12 µg/mL | MIC ([5]; isolate 24 S. aureus Basal MICs, Penicillinase+): 0.12 µg/mL | MIC ([6]; Enterococcus faecalis): 0.06 µg/mL | MIC ([6]; isolate 26 E. faecalis Basal MICs): 0.06 µg/mL | MIC ([6]; isolate 27 E. faecalis Basal MICs): 0.06 µg/mL
